Laboratory results taken from PubChem BioAssay (NCI).
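96-well plates; 48 h exposure; 5 concentrations. Endpoints by linear interpolation between flanking doses. Not reached: highest tested concentration assigned. GI50 = concentration required for 50% inhibition of growth. At the TGI there is no net growth.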

Legend:
Assay in all cases: NCI tumour cell line growth inhibition, 48 h
786-0 renal = test system: 786-0 renal
A498 renal = test system: A498 renal
A549 NSCLC = test system: A549 NSCLC
ACHN renal = test system: ACHN renal
BT-549 breast = test system: BT-549 breast
CAKI-1 renal = test system: CAKI-1 renal
CCRF-CEM leukemia = test system: CCRF-CEM leukemia
COLO 205 colon = test system: COLO 205 colon
DU-145 prostate = test system: DU-145 prostate
EKVX NSCLC = test system: EKVX NSCLC
HCC-2998 colon = test system: HCC-2998 colon
HCT-116 colon = test system: HCT-116 colon
HCT-15 colon = test system: HCT-15 colon
HL-60(TB) leukemia = test system: HL-60(TB) leukemia
HOP-62 NSCLC = test system: HOP-62 NSCLC
HOP-92 NSCLC = test system: HOP-92 NSCLC
HS 578T breast = test system: HS 578T breast
HT29 colon = test system: HT29 colon
IGROV1 ovarian = test system: IGROV1 ovarian
K-562 leukemia = test system: K-562 leukemia
KM12 colon = test system: KM12 colon
LOX IMVI melanoma = test system: LOX IMVI melanoma
M14 melanoma = test system: M14 melanoma
MALME-3M melanoma = test system: MALME-3M melanoma
MCF7 breast = test system: MCF7 breast
MDA-MB-231 breast = test system: MDA-MB-231 breast
MDA-MB-435 = test system: MDA-MB-435
MDA-MB-468 breast = test system: MDA-MB-468 breast
MOLT-4 leukemia = test system: MOLT-4 leukemia
NCI-H226 lung = test system: NCI-H226 lung
NCI-H23 lung = test system: NCI-H23 lung
NCI-H460 lung = test system: NCI-H460 lung
NCI-H522 lung = test system: NCI-H522 lung
NCI/ADR-RES ovarian = test system: NCI/ADR-RES ovarian
OVCAR-3 ovarian = test system: OVCAR-3 ovarian
OVCAR-4 ovarian = test system: OVCAR-4 ovarian
OVCAR-5 ovarian = test system: OVCAR-5 ovarian
OVCAR-8 ovarian = test system: OVCAR-8 ovarian
PC-3 prostate = test system: PC-3 prostate
RPMI-8226 leukemia = test system: RPMI-8226 leukemia
RXF 393 renal = test system: RXF 393 renal
SF-268 CNS = test system: SF-268 CNS
SF-295 CNS = test system: SF-295 CNS
SF-539 CNS = test system: SF-539 CNS
SK-MEL-2 melanoma = test system: SK-MEL-2 melanoma
SK-MEL-28 melanoma = test system: SK-MEL-28 melanoma
SK-MEL-5 melanoma = test system: SK-MEL-5 melanoma
SK-OV-3 ovarian = test system: SK-OV-3 ovarian
SN12C renal = test system: SN12C renal
SNB-19 CNS = test system: SNB-19 CNS
SNB-75 CNS = test system: SNB-75 CNS
SR leukemia = test system: SR leukemia
SW-620 colon = test system: SW-620 colon
T-47D breast = test system: T-47D breast
TK-10 renal = test system: TK-10 renal
U251 CNS = test system: U251 CNS
UACC-257 melanoma = test system: UACC-257 melanoma
UACC-62 melanoma = test system: UACC-62 melanoma
UO-31 renal = test system: UO-31 renal

For `COc1ccc(/C=C/C(=O)c2ccc(OC)c(S(N)(=O)=O)c2)c(C(F)(F)F)c1`, the GI50 (786-0 renal) was 3.16 µM, the TGI (786-0 renal) was 14.4 µM and the GI50 (A498 renal) was 18.1 µM. For the same molecule, the TGI (A498 renal) was 37.8 µM, the GI50 (A549 NSCLC) was 2.99 µM and the TGI (A549 NSCLC) was 11.4 µM. The GI50 (ACHN renal) was 4.28 µM, the TGI (ACHN renal) was 15.7 µM and the GI50 (BT-549 breast) was 5.04 µM. It also gave a TGI (BT-549 breast) of 16.4 µM, a GI50 (CAKI-1 renal) of 3.82 µM and a TGI (CAKI-1 renal) of 14.6 µM. The GI50 (CCRF-CEM leukemia) was 2.95 µM, the TGI (CCRF-CEM leukemia) was 9.7 µM and the GI50 (COLO 205 colon) was 4.76 µM. For the same molecule, the TGI (COLO 205 colon) was 28.9 µM, the GI50 (DU-145 prostate) was 3.39 µM and the TGI (DU-145 prostate) was 12.8 µM. For the same molecule, the GI50 (EKVX NSCLC) was 3.55 µM, the TGI (EKVX NSCLC) was 16.1 µM and the GI50 (HCC-2998 colon) was 10.7 µM. It also gave a TGI (HCC-2998 colon) of 24.2 µM, a GI50 (HCT-116 colon) of 2.41 µM and a TGI (HCT-116 colon) of 6.14 µM. It also gave a GI50 (HCT-15 colon) of 2.32 µM, a TGI (HCT-15 colon) of 6.72 µM and a GI50 (HL-60(TB) leukemia) of 4.7 µM. For the same molecule, the TGI (HL-60(TB) leukemia) was 30.7 µM, the GI50 (HOP-62 NSCLC) was 3.23 µM and the TGI (HOP-62 NSCLC) was 14.4 µM. It also gave a GI50 (HOP-92 NSCLC) of 11 µM, a TGI (HOP-92 NSCLC) of 34.8 µM and a GI50 (HS 578T breast) of 2.84 µM. The TGI (HS 578T breast) was 19.1 µM, the GI50 (HT29 colon) was 3.2 µM and the TGI (HT29 colon) was 11.4 µM. For the same molecule, the GI50 (IGROV1 ovarian) was 3.98 µM, the TGI (IGROV1 ovarian) was 15.8 µM and the GI50 (K-562 leukemia) was 3.24 µM. It also gave a TGI (K-562 leukemia) of 12.6 µM, a GI50 (KM12 colon) of 3.89 µM and a TGI (KM12 colon) of 19 µM. It also gave a GI50 (LOX IMVI melanoma) of 2.31 µM, a TGI (LOX IMVI melanoma) of 6.97 µM and a GI50 (M14 melanoma) of 9.19 µM. For the same molecule, the TGI (M14 melanoma) was 25.2 µM, the GI50 (MALME-3M melanoma) was 5.96 µM and the TGI (MALME-3M melanoma) was 20.6 µM. The GI50 (MCF7 breast) was 2.58 µM, the TGI (MCF7 breast) was 10.6 µM and the GI50 (MDA-MB-231 breast) was 2.37 µM. The TGI (MDA-MB-231 breast) was 6.14 µM, the GI50 (MDA-MB-435) was 4.23 µM and the TGI (MDA-MB-435) was 19.6 µM. The GI50 (MDA-MB-468 breast) was 2.37 µM, the TGI (MDA-MB-468 breast) was 12 µM and the GI50 (MOLT-4 leukemia) was 2.81 µM. It also gave a TGI (MOLT-4 leukemia) of 13.7 µM, a GI50 (NCI-H226 lung) of 2.11 µM and a TGI (NCI-H226 lung) of 5.44 µM. It also gave a GI50 (NCI-H23 lung) of 3.4 µM, a TGI (NCI-H23 lung) of 14.2 µM and a GI50 (NCI-H460 lung) of 2.03 µM. For the same molecule, the TGI (NCI-H460 lung) was 6.2 µM, the GI50 (NCI-H522 lung) was 2.51 µM and the TGI (NCI-H522 lung) was 14.3 µM. For the same molecule, the GI50 (NCI/ADR-RES ovarian) was 2.61 µM, the TGI (NCI/ADR-RES ovarian) was 10.6 µM and the GI50 (OVCAR-3 ovarian) was 2.89 µM. It also gave a TGI (OVCAR-3 ovarian) of 10.4 µM, a GI50 (OVCAR-4 ovarian) of 3.47 µM and a TGI (OVCAR-4 ovarian) of 15.7 µM. It also gave a GI50 (OVCAR-5 ovarian) of 2.21 µM, a TGI (OVCAR-5 ovarian) of 6.33 µM and a GI50 (OVCAR-8 ovarian) of 2.34 µM. The TGI (OVCAR-8 ovarian) was 6.27 µM, the GI50 (PC-3 prostate) was 4.57 µM and the TGI (PC-3 prostate) was 18.5 µM. It also gave a GI50 (RPMI-8226 leukemia) of 3.48 µM, a TGI (RPMI-8226 leukemia) greater than 100 µM and a GI50 (RXF 393 renal) of 2.79 µM. For the same molecule, the TGI (RXF 393 renal) was 11.4 µM, the GI50 (SF-268 CNS) was 3.35 µM and the TGI (SF-268 CNS) was 16.5 µM. For the same molecule, the GI50 (SF-295 CNS) was 4.37 µM, the TGI (SF-295 CNS) was 22.5 µM and the GI50 (SF-539 CNS) was 1.8 µM. The TGI (SF-539 CNS) was 3.4 µM, the GI50 (SK-MEL-2 melanoma) was 3.78 µM and the TGI (SK-MEL-2 melanoma) was 15.9 µM. The GI50 (SK-MEL-28 melanoma) was 11.6 µM, the TGI (SK-MEL-28 melanoma) was 23.8 µM and the GI50 (SK-MEL-5 melanoma) was 3.42 µM. It also gave a TGI (SK-MEL-5 melanoma) of 15.1 µM, a GI50 (SK-OV-3 ovarian) of 15.5 µM and a TGI (SK-OV-3 ovarian) of 43 µM. It also gave a GI50 (SN12C renal) of 2.96 µM, a TGI (SN12C renal) of 11.4 µM and a GI50 (SNB-19 CNS) of 3.95 µM. The TGI (SNB-19 CNS) was 16.1 µM, the GI50 (SNB-75 CNS) was 3.22 µM and the TGI (SNB-75 CNS) was 15.4 µM. For the same molecule, the GI50 (SR leukemia) was 3 µM, the TGI (SR leukemia) was 19.5 µM and the GI50 (SW-620 colon) was 2.07 µM. It also gave a TGI (SW-620 colon) of 6.19 µM, a GI50 (T-47D breast) of 4.06 µM and a TGI (T-47D breast) of 24.7 µM. It also gave a GI50 (TK-10 renal) of 13.4 µM, a TGI (TK-10 renal) of 29.9 µM and a GI50 (U251 CNS) of 2.58 µM. The TGI (U251 CNS) was 7.32 µM, the GI50 (UACC-257 melanoma) was 9.28 µM and the TGI (UACC-257 melanoma) was 21.9 µM. For the same molecule, the GI50 (UACC-62 melanoma) was 4.7 µM, the TGI (UACC-62 melanoma) was 18.1 µM and the GI50 (UO-31 renal) was 5.14 µM. For the same molecule, the TGI (UO-31 renal) was 18.4 µM.
